{"source": "patent US10618935B2", "about": "“Antibody-drug conjugate (ADC) and method for forming the same” (Industrial Technology Research Institute, priority 2015, dated 2020)", "key": {"[1]": {"assay": "Body weight and clinical symptoms in the tumor growth inhibition test", "conditions": "FIG. 20", "description": "(§1) 1×10^6 of FaDu cells were subcutaneous injected to C.B-17 SCID mice at Day 0. The length and width of the tumor were measured and the tumor size was calculated by (length×width×width×½) (mm^3) and recorded. […] Tumor growth and body weight of the mice were observed twice every week."}, "[2]": {"tested_on": "FaDu cells", "assay": "Tumor growth inhibition test, FaDu subcutaneous tumor in C.B-17 SCID mice", "type": "in vivo", "conditions": "Day 8-29; 0.1 mg/kg intravenously once at Day 8; n=6", "description": "as §1"}}, "note": "Square brackets hold non-standard residues; d marks the D form. Peptide text beside a SMILES is read from it. * marks the point of attachment. Dolaproine = CO[C@@H]([C@@H]1CCCN1)[C@@H](C)C(=O)O; Dil = CC[C@H](C)[C@H](NC)[C@@H](CC(=O)O)OC; X2 = C[C@@H](N*)[C@@H](O)c1ccccc1; NMeV = CN[C@H](C(=O)O)C(C)C", "data": [{"smiles": "CC[C@H](C)C([C@@H](CC(=O)N1CCC[C@H]1[C@H](OC)[C@@H](C)C(=O)NC(Cc1ccccc1)C(=O)NCCc1ccc(N)cc1)OC)N(C)C(=O)C(NC(=O)[C@H](C(C)C)N(C)C)C(C)C", "note": "(stereo partly shown) [APEA-AF]", "values": [{"measurement": "weight loss or abnormal clinical symptoms after drug administration", "setting": "[1]", "value": "no weight losing or other significant abnormal clinical symptoms occurred"}, {"measurement": "TGI (%) ± SEM", "setting": "[2]", "value": "11 ± 17", "unit": "%"}]}, {"smiles": "CC[C@H](C)[C@@H]([C@@H](CC(=O)N1CCC[C@H]1[C@H](OC)[C@@H](C)C(=O)N[C@H](C)[C@@H](O)c1ccccc1)OC)N(C)C(=O)[C@@H](NC(=O)[C@@H](NC)C(C)C)C(C)C", "note": "[MMAE] (H-[NMeV]V[Dil][Dolaproine]-X2)", "values": [{"measurement": "weight loss or abnormal clinical symptoms after drug administration", "setting": "[1]", "value": "no weight losing or other significant abnormal clinical symptoms occurred"}, {"measurement": "TGI (%) ± SEM", "setting": "[2]", "value": "12 ± 6", "unit": "%"}]}]}
